In patent publication EP0563345B1, “NOVEL 4-ARYLPIPERAZINES AND 4-ARYLPIPERIDINES” (MCNEILAB, INC., priority 1991, dated 1993):
Counter-ions that a name gives are not always drawn.

Assays:
[1] = target: T1, D-2 (dopamine-2) receptors (Rattus norvegicus, UniProt P61169); assay: biochemical; assay type: binding, male, Wistar rats; conditions: rat striatum P2 fraction, 3H-spiperone 0.05 nM; read-out: Receptor Binding (Ki nM) D2
T1 construct: The D2 assay employed a P2 fraction from the striatum, the ligand ^3H-spiperone at a concentration of 0.05 nM; from tissue; host or cells: rat striatum, P2 fraction (synaptosomal membranes), male Wistar rats
T1 sequence (P61169 whole entry): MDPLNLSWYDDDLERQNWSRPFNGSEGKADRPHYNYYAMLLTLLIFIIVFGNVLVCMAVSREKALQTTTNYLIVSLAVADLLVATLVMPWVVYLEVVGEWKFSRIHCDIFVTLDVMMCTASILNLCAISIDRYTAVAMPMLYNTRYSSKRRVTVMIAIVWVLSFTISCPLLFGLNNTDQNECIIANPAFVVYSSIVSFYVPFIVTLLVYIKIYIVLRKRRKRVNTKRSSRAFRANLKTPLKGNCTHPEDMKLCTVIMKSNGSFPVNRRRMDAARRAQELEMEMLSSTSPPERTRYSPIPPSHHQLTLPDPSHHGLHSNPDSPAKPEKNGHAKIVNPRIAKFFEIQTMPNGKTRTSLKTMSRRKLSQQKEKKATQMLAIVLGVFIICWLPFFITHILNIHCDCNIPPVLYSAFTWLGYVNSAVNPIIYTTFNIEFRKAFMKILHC
Experimental: The dopamine D2 binding activity of compounds was determined using a P2 fraction (synaptosomal membranes) prepared from male, Wistar rats.
The data from this assay were analyzed by calculating the percent inhibition of the binding of the tritiated ligands by given concentrations of the test compound. Kl values, where given, were obtained from the logit analysis of concentration-inhibition curves.

Male, Fischer 344 rats = assay: Block of Conditioned Avoidance Responding (Rat) test (CAR); conditions: for CAR 15 mg/kg IP Administration (% change CAR) / CAR 5 mg/kg IP Administration (% change CAR): negative number = blockade of CAR
Text: Apparatus: Rat operant chambers, housed within sound attenuated booths, both from Capden Instruments Ltd., were used in this test. The test chamber (8" H x […] D) is constructed of aluminum and plexiglass with floor grid bars of stainless-steel (1/8" O.D.) spaced 9/16" apart. A stainless-steel operation level 1-1/2" wide projects 3/4" into the chamber and is positioned 2-2/8" above the grid floor. The shock stimulus is delivered via the grid floor by a Coulbourn Instruments solid state module. The parameters of the test and the collection of data are controlled automatically.
The rats are trained for two weeks to approach criterion levels in the avoidance test (90% avoidance rate). One-hour training sessions are run at about the same time each day for four or five days a week. The training session consists of 120 trials, with the conditioned stimuli presented every 30 sec. A trial begins with presentation of the conditioned stimuli (a light and a tone). If the rat responds by depressing the operant lever during the 15-second presentation of the conditioned stimuli, the trial is terminated and the animal is credited with a CAR. Failure to respond during the conditioned stimuli causes the presentation of the unconditioned stimulus (UCS), a 0.7 mA shock which is accompanied by a light and tone for five seconds. If the rat depressed the lever within the ten-second period, the shock and trial are terminated and an escape response recorded. If the rat fails to depress the lever during the UCS (shock), the trial is terminated after ten seconds of shock and the absence of a response is scored as a failure to escape. Intertrial level presses have no effect. If a rat performs at the 90% CAR level for two weeks, it is then run twice a week on the test schedule (see below) until baseline performance stabilized.
Trained rats are run in a one-hour session on two consecutive days at the same time and in the same test chamber each day. The sessions consist of 60 trials, one every minute. The conditioned stimuli are presented for 15 sec (maximum) and the unconditioned stimuli five sec (maximum). On Day 1, a vehicle solution is administered to the rats at a time preceding the trial run corresponding to the pretreatment time for the test compound. The route of administration and the volume of vehicle are also matched to that of the test compound.
The percent change in CAR on the drug treatment day compared to vehicle pretreatment day is the key measure. The percent change (% change) in CAR is determined using the following formula: % change CAR = ((% CAR for Day 2/% CAR for Day 1) x 100)-100 [formula]
A negative number indicates a blockade of CAR, whereas a positive number would indicate increased CAR. The test results are reported as the mean % change for the group of rats. Failure to escape, a measure of the general sedative potential of the compound, was calculated for each animal as follows: % Failures = # of Failures to Escape/# of trials [formula]
The % failures, viz., loss of escape, is also reported as a group mean. Failures to escape are monitored closely and a session is terminated if ten failures occurred.
In the Tables and formulas therein, OiPr is isopropoxy, Me is methyl, MeO is methoxy, Et is ethyl, Ph is phenyl, n-Bu is normal butyl, cC6H11 is cyclohexyl, BOC is t-butyloxycarbonyl, Ac is acetyl, and NT is not tested in that partcular test. The escape loss numbers are shown at CAR 5 mg/kg unless otherwise noted.

Structure (SMILES) | Ki [1] [nM] | (Escape Loss) % failures to escape (Male, Fischer 344 rats; at CAR 15 mg/kg IP) [%] | CAR 15 mg/kg IP Administration (% change CAR) (Male, Fischer 344 rats) [%] | further results
CCOC(=O)C1CCCCN1C(=O)c1cccc(CN2CCN(c3ccccc3OC(C)C)CC2)c1 (stereo not drawn) [Compound 19] | 4.1 | 46 | -97 | 
CC(C)Oc1ccccc1N1CCN(Cc2cccc(C(=O)N3CCCCC3CO)c2)CC1 (stereo not drawn) [Compound 21] | 5.2 | 43 | -99 | 
CC(C)Oc1ccccc1N1CCN(Cc2cccc(C(=O)N3CCC3)c2)CC1 [Compound 51] |  | 0 | -88 | 
CC(C)Oc1ccccc1N1CCN(Cc2cccc(C(=O)N3CCC4CCCCC43)c2)CC1 (stereo not drawn) [Compound 4] | 5.6 |  |  | 
CC(C)Oc1ccccc1N1CCN(Cc2cccc(C(=O)N3CCCC3)c2)CC1 [Compound 52] |  |  |  | CAR IP Administration (% change CAR) at 7.5 mg/kg (Male, Fischer 344 rats; 7.5 mg/kg IP): -98%; (Escape Loss) % failures to escape (Male, Fischer 344 rats; at CAR 7.5 mg/kg IP): 0%
CC(C)Oc1ccccc1N1CCN(Cc2ccc([N+](=O)[O-])c(C(=O)N3CCCCC3)c2)CC1 [Compound 7] | 85 |  |  | 
CC(C)Oc1ccccc1C1CCN(Cc2cccc(C(=O)N3[C@H](C)CCC[C@@H]3C)c2)CC1 [Compound 40] |  |  |  | CAR 5 mg/kg IP Administration (% change CAR) (Male, Fischer 344 rats): -98%; (Escape Loss) % failures to escape (Male, Fischer 344 rats; at CAR 5 mg/kg IP): 37%
CCN(CC)C(=O)c1cccc(CN2CCN(c3ccccc3OC(C)C)CC2)c1 [Compound 68] |  |  |  | CAR 5 mg/kg IP Administration (% change CAR) (Male, Fischer 344 rats): -96%; (Escape Loss) % failures to escape (Male, Fischer 344 rats; at CAR 5 mg/kg IP): 14%
O=C(c1cccc(CN2CCN(c3cccc([N+](=O)[O-])c3)CC2)c1)N1CCCCC1 [Compound 49] |  | 0 | -78 | 
CC(C)Oc1ccccc1N1CCN(Cc2cccc(C(=O)N3C(C)CCC3C)c2)CC1 (stereo not drawn) [Compound 2] | 4.7 |  |  | 
COc1ccccc1N1CCN(Cc2cccc(C(=O)N3CCCCCC3)c2)CC1 [Compound 85] |  |  |  | CAR 5 mg/kg IP Administration (% change CAR) (Male, Fischer 344 rats): -95%; (Escape Loss) % failures to escape (Male, Fischer 344 rats; at CAR 5 mg/kg IP): 22%
C[C@@H]1CCC[C@H](C)N1C(=O)c1cccc(CN2CCN(c3ccccc3C#N)CC2)c1 [Compound 3] | 303 |  |  | 
COc1ccc(CN2CCN(c3ncccn3)CC2)cc1C(=O)N1[C@H](C)CCC[C@@H]1C [Compound 6] | 808 |  |  | 
CC(C)Oc1ccccc1N1CCN(Cc2cccc(C(=O)N3CC4CCC(CC4)C3)c2)CC1 [Compound 96] |  | 67 | -98 | 
O=C(c1cccc(CN2CCN(c3cccc(Cl)c3)CC2)c1)N1CCCCC1 [Compound 91] |  |  |  | CAR 5 mg/kg IP Administration (% change CAR) (Male, Fischer 344 rats): -36%; (Escape Loss) % failures to escape (Male, Fischer 344 rats; at CAR 5 mg/kg IP): 21%
O=C(c1cccc(CN2CCN(c3ccccc3F)CC2)c1)N1CCCCC1 [Compound 22] |  | 21 | -84 | 

Continued, in another order:

Ki [1] [nM] | (Escape Loss) % failures to escape (Male, Fischer 344 rats; at CAR 15 mg/kg IP) [%] | Structure (SMILES) | CAR 15 mg/kg IP Administration (% change CAR) (Male, Fischer 344 rats) [%] | further results
11 |  | CC(C)Oc1ccccc1N1CCN(CCCC(=O)c2ccc(C(=O)N3CCCCC3)cc2)CC1 [Compound 100, fumarate] |  | 
7.2 |  | CC(C)Oc1ccccc1N1CCN(CCCCc2ccc(C(=O)N3CCCCC3)cc2)CC1 [Compound 102, 1-[4-[4-[4-[2-(1-Methylethoxy)phenyl]-1-piperazinyl]butyl]benzoyl]piperidine dihydrobromide] |  | 
13 |  | CC(C)Oc1ccccc1N1CCN(CCCC(O)c2ccc(C(=O)N3CCCCC3)cc2)CC1 (stereo not drawn) [Compound 101, bisoxalate] |  | 
 | 11 | O=C(c1cccc(CN2CCN(c3ccccc3)CC2)c1)N1CCCCC1 [Compound 95] | -82 | 
 | 0 | CCCCN(CCCC)C(=O)c1cccc(CN2CCN(c3ccccc3OC(C)C)CC2)c1 [Compound 69] | -6 | 
32 |  | CC(C)Oc1ccccc1N1CCN(Cc2ccccc2C(=O)N2CCOCC2)CC1 [Compound 110] |  | 
10.4 |  | CCOC(=O)C1CCN(C(=O)c2ccccc2CN2CCN(c3ccccc3OC(C)C)CC2)CC1 [Compound 108] |  | 
7 |  | CC(C)Oc1ccccc1N1CCN(Cc2ccccc2C(=O)N2CCCC(C)(C)C2)CC1 [Compound 109] |  | 
